ChEMBL document CHEMBL1156829 (Proc Natl Acad Sci U S A, 2008)
Where a name gives a salt, the structure may show the parent alone.

Columns and labels:
Plasmodium falciparum [1] = assay: NOVARTIS: Inhibition of Plasmodium falciparum 3D7 (drug-susceptible) proliferation in erythrocyte-based infection assay; format: functional, organism-based; details: Plasmodium falciparum, 3D7
[2] = NOVARTIS: Cytotoxicity against human hepatocellular carcinoma cell line (Huh7); format: toxicity, cell-based, Huh-7; details: Huh7 cells (hepatocellular carcinoma cell line)
Plasmodium falciparum [3] = assay: NOVARTIS: Inhibition of Plasmodium falciparum W2 (drug-resistant) proliferation in erythrocyte-based infection assay; format: functional, organism-based; details: Plasmodium falciparum, W2; read-out: EC50

Row | SMILES | EC50 (Plasmodium falciparum [1]) [nM] | CC50 [2] [nM] | EC50 (Plasmodium falciparum [3]) [nM]
1 | CC1(C)N=C(N)N=C(N)N1c1ccc(I)cc1 | 7.23 | > 100000 | > 12500
2 | c1ccc(CN2CCC(Nc3ncnc4cc(-c5ccccc5)sc34)CC2)cc1 | 2060 | > 100000 | 4890
3 | CSc1nnc(CN2CCSCC2)n1C | 2030 | > 10000 | > 1250
4 | CCOC(=O)CCS(=O)(=O)c1ccc(Br)cc1 | 237 | > 10000 | > 1460
5 | COC(=O)[C@@H]1C[C@H](NC(=O)c2[nH]c3ccc(Cl)cc3c2-c2ccccc2)CN1Cc1cc(OC)cc(OC)c1 | > 11500 | > 100000 | 786
6 | O=C(Cn1ccc(=NCc2ccccc2)cc1)c1ccc(I)cc1 | 308 | 20800 | 448
7 | Cc1ccc(O)c(NC(=O)c2cnn3c(C(F)(F)F)cc(-c4ccc(Br)cc4)nc23)c1 | 7450 | > 100000 | 2480
8 | O=C1C(=O)N(Cc2ccccc2[N+](=O)[O-])c2ccccc21 | 710 | > 100000 | 326
9 | COc1cc(NC(C)CCCN(Cc2ccc(Cl)cc2)C(=O)c2ccc(Cl)cc2Cl)c2ncccc2c1 (stereo not given) | 376 | 4870 | 473
10 | COCCCNC(=O)c1c(C)nc2scc(C)n12 | > 1080 | > 10000 | > 1450
11 | O=C(Nc1ccc(Cl)c(C(F)(F)F)c1)NC1CC2CCC(C1)N2C1CCCC1 (stereo not given) | 541 | > 10000 | 810
12 | CC1CCCCN1CCCNc1ncc(C(=O)NCCc2ccccc2)c(Nc2ccccc2)n1 (stereo not given) | 1120 | > 10000 | > 1250
13 | O=C(Nc1ccc(N2CCCCC2)cc1)N1CCc2nc[nH]c2C1c1ccc(Cl)cc1 (stereo not given) | 640 | > 5040 | 239
14 | Cc1ccc(N=C2NC(=O)/C(=C/c3cc(C)n(-c4cccc([N+](=O)[O-])c4)c3C)S2)cc1 | 353 | > 100000 | 985
15 | CC[n+]1c(/C=C/c2ccc(F)cc2)ccc2ccccc21 | 122 | > 10000 | 140
16 | Cc1ccc(S(=O)(=O)N2CCN(C(=O)c3ccccc3)C2c2ccccc2)cc1 (stereo not given) | > 12500 | 10600 | 6290
17 | Cc1cccc(C2c3[nH]c4ccccc4c3CCN2C(=O)CCCN2CCCCC2=O)n1 (stereo not given) | > 12500 | > 100000 | 3770
18 | COc1ccccc1C(=O)NC1CCN(CC(O)CN(Cc2ccccc2)S(=O)(=O)c2ccccc2)C1 (stereo not given) | 215 | > 10000 | 115
19 | O=C(Nc1ccc(C2=NCCN2)cc1)c1ccc(-c2ccc(C(=O)Nc3ccc(C4=NCCN4)cc3)cc2)cc1 | 1320 | > 11700 | 364
20 | COC(=O)C1CCCN1S(=O)(=O)c1ccc2ccccc2c1 (stereo not given) | > 4940 | > 100000 | 2820
21 | COc1cc2nc(NC(=N)N)nc(C)c2cc1OC | 24.4 | > 10000 | 44.1
22 | Cc1cc(NC(=O)/C=C/c2ccccc2Cl)ccc1Br | 1350 | > 10000 | 1810
23 | CCN(CC)CCNc1ncnc2c1[nH]c1ccc(Br)cc12 | 288 | 19500 | 318
24 | COc1ccc(S(=O)(=O)NCCCCNc2ccnc3cc(Cl)ccc23)cc1 | 345 | > 10000 | 484

Row | SMILES | EC50 (Plasmodium falciparum [1]) [nM] | CC50 [2] [nM] | EC50 (Plasmodium falciparum [3]) [nM]
25 | CCCCCCn1c(=O)c(C(=O)NCC[N+](CC)(CC)CC)c(O)c2ccccc21 | 506 | > 100000 | 236
26 | CCOc1ccc2cc(C#N)c(SCC(=O)N3CC(=O)Nc4ccccc43)nc2c1 | > 1110 | > 10000 | > 1250
27 | CCCc1cc2c(=O)c(-c3ccc4c(c3)OCO4)c(CC)oc2cc1OC(C)C | 5840 | > 100000 | > 12500
28 | COc1ccc(NC2=C(c3ccc(C(F)(F)F)cc3)C(=O)c3ccccc32)cc1 | 339 | > 100000 | 772
29 | O=C(Nc1ccccc1O)c1ccc(Cl)cc1 | 3260 | 36200 | 1090
30 | CCOc1ccc(CCNC(=O)c2cccs2)cc1OCC | 890 | > 100000 | 560
31 | O=C(COc1ccccc1)NC(c1ccc([N+](=O)[O-])cc1)c1cc(Cl)c2cccnc2c1O (stereo not given) | 605 | > 80600 | 434
32 | CCCCCCC(=O)NC1CCC(Nc2ccnc3cc(Cl)ccc23)CC1 (stereo not given) | 630 | > 10000 | > 1250
33 | CN(Cc1ccsc1)C(=O)CCc1nnc(CCCc2ccccc2)o1 | > 1250 | > 10000 | 270
34 | CC1(C)N=C(N)N=C(N)N1c1ccc(Cl)cc1 [CHLORCYCLOGUANIL HYDROCHLORIDE] | 0.986 | 27400 | 884
35 | O=C(NCc1ccccc1)c1cnc(NCCCn2ccnc2)nc1NC1CCCC1 | 624 | > 10000 | 1320
36 | CCCOC(=O)C1=C(C)NC2=C(C(=O)CC(c3ccc(OC)c(OC)c3)C2)C1c1ccc(Cl)cc1Cl (stereo not given) | 7.62 | > 100000 | 4.36
37 | CCC(c1nc2ccccc2c(=O)n1-c1ccc(F)c(Cl)c1)N(CCc1ccccc1)C(=O)COc1ccccc1 (stereo not given) | 1190 | > 6280 | > 492
38 | CCN1CC=C2C(C#N)=C(N)C(C#N)(C#N)[C@H](c3ccc(C)s3)[C@H]2C1 | 1680 | > 100000 | 464
39 | Cc1c(-c2ccccc2)c2ccccc2n1CCc1ccc(C)[n+](C)c1 | 647 | > 100000 | 690
40 | OC(CNC1CCCCC1)Cn1c2ccccc2c2ccccc21 (stereo not given) | 483 | 18000 | 198
41 | CCN(CC)c1ccc(C2N(Cc3ccccc3)CCN2Cc2ccccc2)c(O)c1 | 2360 | 23600 | 2820
42 | CN(C)c1ccc(/C=C/C(=O)NC(=O)c2ccccc2O)cc1 | 84.4 | > 10000 | 75.2
43 | CC1=C(CCN(CCCN(C)C)CCCN(C)C)C(C)(C)CCC1 | 193 | 7660 | 498
44 | COc1ccc(C(OCC(=O)N2CCN(Cc3ccccc3)CC2)c2ccccc2)cn1 (stereo not given) | 604 | > 10000 | 434
45 | CN1C2CCC1/C(=C\c1ccsc1)C(=O)/C2=C\c1ccsc1 | > 1300 | > 10000 | > 1190
46 | Cc1cc(C)c(S(=O)(=O)N2CCCC2CNC(=O)c2cccc([N+](=O)[O-])c2)c(C)c1 (stereo not given) | 914 | > 100000 | 1230
47 | Cc1cccc(C)c1NC(=O)N1CCN(C(=O)c2nc(-c3ccccc3)nc(C)c2C(=O)OC(C)C)CC1C (stereo not given) | 792 | > 10000 | 642
48 | COc1cccc(NC(=O)c2ccc3oc(=O)c(S(=O)(=O)c4ccccc4)cc3c2)c1 | > 1250 | > 10000 | > 898

Row | SMILES | EC50 (Plasmodium falciparum [1]) [nM] | CC50 [2] [nM] | EC50 (Plasmodium falciparum [3]) [nM]
49 | COC(=O)N(C)C(C)(C)C(C)=NOC(=O)c1ccccc1 | > 1620 | > 10000 | > 1180
50 | CCOC(=O)c1cccc(OC(=O)c2ccccc2)c1 | > 7670 | > 100000 | 2120
51 | COc1ccc(/C=C/C(=O)Nc2ccc3nc(N4CCN(C)CC4)cc(C)c3c2)cc1OC | 872 | > 10000 | > 1250
52 | COc1ccccc1C(=O)Oc1ccccc1-c1nc2ccccn2c1NC(C)(C)CC(C)(C)C | 1580 | > 10000 | 40.8
53 | CC[n+]1c(C=C2C=C(C)OC(C)=C2)sc2ccccc21 | 147 | > 32000 | 119
54 | CCCCC(=O)NC(c1ccccc1)c1ccc2cccnc2c1O (stereo not given) | 387 | > 100000 | 239
55 | CCOC(=O)c1cnc2c(C)cc(C)cc2c1Nc1ccc(OC)c(OC)c1 | 1780 | > 100000 | 583
56 | Cc1nc(-c2nc3c(s2)CN(C(=O)COc2ccc(Cl)cc2)CC3)cs1 | > 10700 | > 100000 | 2920
57 | CCCN[P+](CC(C)C)(NCCC)NCCC | 211 | 3340 | 398
58 | CCCCNC(=O)C(c1cccc(OC)c1)N1C(=O)c2cc(OCCc3cccc(OC)c3)ccc2NC(=O)C1CO (stereo not given) | 110 | > 10000 | 42.9
59 | CCCCCCC[N+](CC)(CC)CCCCc1ccc(Cl)cc1 | 431 | > 10000 | 90.9
60 | Cc1ccc(NC2=C(c3ccc(C(F)(F)F)cc3)C(=O)c3ccccc32)cc1C | 1240 | > 100000 | 1690
61 | CN(C)c1ccc2c(c1)Sc1cc(N(C)C)ccc1N2C(=O)c1ccccc1 | 218 | > 100000 | 232
62 | Cc1nc2c(=O)n(C)c(=O)nc-2n(C)n1 | 593 | > 10000 | 398
63 | COc1ccc(OC)c(-c2ccc(O)c(CNC3CCCCCC3)c2)c1 | 364 | > 10000 | 97.5
64 | CN1CCc2c(sc3nc(SCc4ccc(F)cc4)n(-c4ccccc4)c(=O)c23)C1 | 498 | > 100000 | 320
65 | Clc1ccc(Nc2nc(NCc3ccco3)c3ccccc3n2)cc1 | 113 | 15600 | 92.4
66 | COc1ccc2nc(C)cc(Nc3ccc(Oc4ccc5ccccc5c4)c(Cl)c3)c2c1 | 166 | 7070 | 206
67 | c1ccc2nc3c(nnc4ccccc43)nc2c1 | 1100 | 28500 | 996
68 | CC(C)CCN1C(=O)N(CCN(C)C)C(=O)C12CCN(Cc1ccc(O)cc1)CC2 | 740 | 68400 | 123
69 | c1ccc(Nc2nc(NCC3CCCO3)c3ccccc3n2)cc1 (stereo not given) | 114 | > 10000 | 169
70 | CCC(C)C(=O)N1CCC(C(=O)Nc2ccc(-c3nc4ccccc4o3)cc2)CC1 (stereo not given) | 1860 | > 100000 | 1580
